The source made the active and inactive calls. How the calls were made is not given here.
These molecules were tested on Clostridioides difficile clinical isolate growth, OD600, 24 h (assay: C. difficile growth inhibition, confirmation, 4-point retest (AID 1224921)).

SMILES | AC50
NC(=O)[C@@H]1[C@H]2C(=O)O[C@H](c3ccccc3)[C@H](c3ccccc3)N2[C@H](c2ccccc2OCCO)[C@@]12C(=O)Nc1ccccc12 | 32.8 µM
CCCNC(=O)C[C@H]1CC[C@H]2[C@@H](COC[C@@H](O)CN2C(=O)Nc2ccc(Cl)c(Cl)c2)O1 | 2.78 µM
C[C@@H]1CN([C@H](C)CO)C(=O)c2cc(C#CCc3ccccc3)cnc2O[C@H]1CN(C)CC1CCCC1 | 31 µM
C[C@@H]1CCCCO[C@H](CN(C)Cc2ccccc2)[C@@H](C)CN([C@@H](C)CO)C(=O)c2cc(NC(=O)Nc3ccc(C(F)(F)F)cc3)ccc2O1 | 12.5 µM
C[C@@H]1CCCCO[C@H](CN(C)CC2CCCCC2)[C@H](C)CN([C@@H](C)CO)C(=O)c2cc(NS(=O)(=O)c3ccc(Cl)cc3)ccc2O1 | 14.6 µM
C[C@H](CO)N1C[C@H](C)[C@@H](CN(C)CC2CCCCC2)OCCCC[C@H](C)Oc2ccc(NC(=O)Nc3ccc(C(F)(F)F)cc3)cc2C1=O | 13.6 µM
COc1ccc(C#Cc2cnc3c(c2)C(=O)N([C@@H](C)CO)C[C@@H](C)[C@H](CN(C)CC2CCCC2)O3)cc1 | 13.1 µM
O=C(C[C@H]1CC[C@H]2[C@@H](COC[C@H](O)CN2S(=O)(=O)c2ccccc2)O1)NCC1CCCCC1 | 13.5 µM
CCC(=O)N[C@@H]1CC[C@@H](CCNC(=O)Nc2ccc(C(F)(F)F)cc2)O[C@H]1CO | 2.75 µM
O=C(C[C@@H]1CC[C@H]2[C@@H](COC[C@@H](O)CN2C(=O)Nc2ccc(Cl)c(Cl)c2)O1)NCc1ccc(Cl)cc1 | 1.04 µM
O=C(NCC[C@@H]1CC[C@H](NC(=O)C2CC2)[C@H](CO)O1)Nc1ccc(C(F)(F)F)cc1 | 4.32 µM
O=C(N[C@H]1CC[C@H](CCNS(=O)(=O)c2ccc(Cl)cc2)O[C@H]1CO)c1ccccn1 | > 60 µM (inactive)
CCNC(=O)C[C@@H]1CC[C@@H]2[C@H](COC[C@@H](O)CN2C(=O)Nc2ccc(Cl)c(Cl)c2)O1 | 16.5 µM
O=C(C[C@H]1C[C@H]2c3cc(NC(=O)Nc4ccccc4)ccc3O[C@H]2[C@H](CO)O1)NC1CCCC1 | > 60 µM (inactive)
C[C@H](CO)N1C[C@H](C)[C@@H](CN(C)Cc2ccc(-c3ccccc3)cc2)Oc2c(NC(=O)c3ccncc3)cccc2C1=O | 6.59 µM
CO[C@@H]1CN(C)C(=O)c2cc(NC(=O)Nc3cc(Cl)cc(Cl)c3)ccc2OC[C@H](C)NC[C@@H]1C | 9.05 µM
C/C=C/c1ccc2c(c1)O[C@H](CN(C)C(=O)c1ccc(F)cc1)[C@H](C)CN([C@H](C)CO)S2(=O)=O | > 60 µM (inactive)
CO[C@H]1CN(C)C(=O)c2cc(NC(=O)Nc3cc(Cl)cc(Cl)c3)ccc2OC[C@@H](C)NC[C@H]1C | 9.49 µM
O=C(NCC[C@@H]1CC[C@@H](NC(=O)c2cccnc2)[C@@H](CO)O1)Nc1ccc(C(F)(F)F)cc1 | 13.8 µM
C[C@@H]1CN([C@@H](C)CO)C(=O)c2cc(NC(=O)Nc3ccc(C(F)(F)F)cc3)ccc2O[C@@H](C)CCCCO[C@H]1CN(C)CC1CCCCC1 | 4.9 µM
O=C(C[C@@H]1CC[C@@H]2[C@H](COC[C@H](O)CN2C(=O)Nc2ccc(C(F)(F)F)cc2)O1)NCC1CC1 | 1.14 µM
CO[C@@H](CN(C)C(=O)C1CC1)[C@@H](C)CN(C(=O)Nc1ccc(C(F)(F)F)cc1)[C@@H](C)CO | 3.31 µM
C[C@@H]1CCCCO[C@H](CN(C)Cc2ccc3c(c2)OCO3)[C@@H](C)CN([C@@H](C)CO)C(=O)c2cc(NS(=O)(=O)c3cccs3)ccc2O1 | 13.8 µM
C[C@H](CO)N1C[C@H](C)[C@@H](CN(C)CC2CCCC2)Oc2ncc(C#CCc3ccccc3)cc2C1=O | > 60 µM (inactive)
O=C(C[C@H]1CC[C@@H](NC(=O)CCN2CCCCC2)[C@H](CO)O1)Nc1nccs1 | > 60 µM (inactive)
COc1ccc(CN(C)C[C@@H]2OCCCC[C@H](C)Oc3ccc(NC(=O)Nc4ccc(C(F)(F)F)cc4)cc3C(=O)N([C@H](C)CO)C[C@H]2C)cc1 | 3.24 µM

SMILES | AC50
O=C(C[C@H]1CC[C@H]2[C@@H](COC[C@H](O)CN2C(=O)Nc2ccc(C(F)(F)F)cc2)O1)NCCc1ccncc1 | 2.37 µM
O=C(C[C@H]1CC[C@H]2[C@@H](COC[C@@H](O)CN2C(=O)Nc2ccc(C(F)(F)F)cc2)O1)NC1Cc2ccccc2C1 | 7.54 µM
O=C(C[C@H]1CC[C@@H]2[C@H](COC[C@H](O)CN2C(=O)Nc2ccc(Cl)c(Cl)c2)O1)NC1CCC1 | 4.46 µM
O=C(C[C@H]1CC[C@@H]2[C@H](COC[C@H](O)CN2C(=O)Nc2ccc(Cl)c(Cl)c2)O1)NCc1ccc(Cl)cc1 | 1.88 µM
C[C@@H]1CN([C@@H](C)CO)C(=O)c2cc(NC(=O)Nc3ccc(C(F)(F)F)cc3)ccc2O[C@@H](C)CCCCO[C@H]1CN(C)Cc1ccccc1 | 26.9 µM
CC(=O)N[C@@H]1CC[C@H](CCNC(=O)Nc2ccc(C(F)(F)F)cc2)O[C@H]1CO | 11.8 µM
COc1cccc(C#Cc2ccc3c(c2)O[C@@H](CN(C)C)[C@H](C)CN([C@H](C)CO)S3(=O)=O)c1 | 25.8 µM
O=C(C[C@H]1CC[C@H]2[C@@H](COC[C@@H](O)CN2C(=O)Nc2ccc(Cl)c(Cl)c2)O1)NCc1ccc(Cl)cc1 | 1.03 µM
O=C(C[C@@H]1CC[C@@H]2[C@H](COC[C@@H](O)CN2C(=O)Nc2cccc(Cl)c2)O1)N1CCCCC1 | 18.7 µM
C[C@@H]1CN([C@H](C)CO)S(=O)(=O)c2ccc(C#CCC3CCCC3)cc2O[C@@H]1CN(C)C(=O)CN(C)C | 17.6 µM
C[C@@H]1CN([C@@H](C)CO)C(=O)c2cccc(NC(=O)Nc3ccc(C(F)(F)F)cc3)c2O[C@@H]1CN(C)C(=O)Nc1ccc(F)cc1 | 30 µM
O=C(C[C@H]1CC[C@H]2[C@@H](COC[C@@H](O)CN2C(=O)Nc2cc(Cl)cc(Cl)c2)O1)NCC1CC1 | 10.9 µM
O=C(NCC[C@H]1CC[C@H](NC(=O)C2CC2)[C@@H](CO)O1)Nc1ccc(C(F)(F)F)cc1 | 15.6 µM
COc1ccc(CN(C)C[C@H]2OCCCC[C@@H](C)Oc3ccc(NC(=O)Nc4ccc(C(F)(F)F)cc4)cc3C(=O)N([C@@H](C)CO)C[C@@H]2C)cc1 | 4.74 µM
N#C[C@H]1[C@@H](c2ccc(C#Cc3cccc(F)c3)cc2)[C@H](CO)N1C(=O)C1CCC1 | 26.4 µM
O=C(C[C@@H]1CC[C@@H]2[C@H](COC[C@H](O)CN2C(=O)Nc2ccc(Cl)c(Cl)c2)O1)NCc1ccc(F)cc1 | 0.968 µM
C[C@@H]1CN([C@@H](C)CO)C(=O)c2cc(NC(=O)Nc3ccc(C(F)(F)F)cc3)ccc2O[C@@H]1CN(C)CC1CCCCC1 | 9.84 µM
C[C@H]1CCCCO[C@H](CN(C)CC2CC2)[C@@H](C)CN([C@@H](C)CO)C(=O)c2cc(NC(=O)Nc3ccc(C(F)(F)F)cc3)ccc2O1 | 5.12 µM
C[C@@H]1CN([C@@H](C)CO)C(=O)c2cccc(NC(=O)Nc3ccccc3)c2O[C@@H]1CN(C)Cc1ccc(C(F)(F)F)cc1 | 8.02 µM
O=C(C[C@@H]1C[C@H]2c3cc(NC(=O)NC4CCCC4)ccc3O[C@H]2[C@H](CO)O1)NCc1ccc2c(c1)OCO2 | > 60 µM (inactive)
C[C@@H]1CN([C@H](C)CO)S(=O)(=O)c2ccc(C#Cc3cccc(F)c3)cc2O[C@H]1CN(C)C | > 60 µM (inactive)
C[C@H]1CN([C@@H](C)CO)C(=O)c2cccc(NC(=O)c3ccncc3)c2O[C@@H]1CN(C)Cc1ccc(-c2ccccc2)cc1 | 1.74 µM
O=C(C[C@@H]1CC[C@@H]2[C@H](COC[C@@H](O)CN2C(=O)Nc2ccc(Cl)c(Cl)c2)O1)NCc1ccccc1 | 1.4 µM
CO[C@H]1CN(C)C(=O)c2ccc(NC(=O)Nc3cc(Cl)cc(Cl)c3)cc2OC[C@@H](C)NC[C@@H]1C | 15.9 µM
C[C@@H]1CN([C@@H](C)CO)C(=O)c2cccc(NC(=O)Nc3ccc(C(F)(F)F)cc3)c2O[C@@H]1CN(C)Cc1ccccc1 | 3.65 µM

Reference: PubChem BioAssay AID1224921 (Broad Institute, 2016)
